Values quoted from earlier work, collected in patent US20050169894A1, “Compositions and methods for ex vivo preservation of blood vessels for vascular grafts using inhibitors of Type III and/or Type IV phosphodiesterases” (priority 2003, published 2005).

How the values were obtained:
endothelial cells = details: stated as known; about 4 mM
[1] = test system: Type IV phosphodiesterase; details: at high concentrations; Lugnier and Komas, 1993
Type V phosphodiesterase = Type V phosphodiesterase (Homo sapiens, UniProt O76074); details: at high concentrations; Lugnier and Komas, 1993

SMILES	concentration toxic to endothelial cells (endothelial cells)	inhibition of Type IV phosphodiesterase activity [1]	inhibition of Type V phosphodiesterase activity (Type V phosphodiesterase)
CCCC(=O)Nc1ncnc2c1ncn2[C@@H]1O[C@@H]2COP(=O)(O)O[C@H]2[C@H]1OC(=O)CCC [db cAMP, dibutyryl adenosine 3′,5′-cyclic monophosphate]	higher than 4 mM		
Cc1[nH]c(=O)c(C#N)cc1-c1ccncc1 [milrinone, Milrinone]		inhibits	inhibits
